# Source: ChEMBL document CHEMBL6153138, “Discovery of Novel Aromatic Urea-Imidazole Salt Derivatives for Cancer Therapy via Targeting ERK1/2” (J Med Chem, 2025)
# Columns and labels:
# [1] = target: Mitogen-activated protein kinase 1 (Homo sapiens, UniProt P28482); assay: Inhibition of ERK2 (unknown origin) incubated for 60 mins by luminescence based ADP-Glo kinase assay
# MCF7 [2] = assay: Growth inhibition of human MCF7 cells at 5 uM incubated for 48 hrs by CCK-8 method relative to control; format: functional; conditions: read-out: GI
# HepG2 = assay: Growth inhibition of human HepG2 cells at 5 uM incubated for 48 hrs by CCK-8 method relative to control; format: functional; conditions: read-out: GI
# A549 = assay: Growth inhibition of human A549 cells at 5 uM incubated for 48 hrs by CCK-8 method relative to control; format: functional; conditions: read-out: GI
# 5637 = assay: Growth inhibition of human 5637 cells at 5 uM incubated for 48 hrs by CCK-8 method relative to control; format: functional; conditions: read-out: GI
# MCF7 [3] = assay: Antiproliferative activity against human MCF7 cells incubated for 48 hrs by CCK-8 method; format: functional, cell-based; conditions: MCF7, 48 h
# 4T1 = assay: Antiproliferative activity against mouse 4T1 cells incubated for 48 hrs by CCK-8 method; format: functional, cell-based; conditions: 4T1, 48 h
# MDA-MB-468 = assay: Antiproliferative activity against human MDA-MB-468 cells incubated for 48 hrs by CCK-8 method; format: functional, cell-based; conditions: MDA-MB-468, 48 h
# HCC1937 = assay: Antiproliferative activity against human HCC1937 cells incubated for 48 hrs by CCK-8 method; format: functional, cell-based; conditions: HCC1937, 48 h
# MCF-10A = assay: Antiproliferative activity against human MCF-10A cells incubated for 48 hrs by CCK-8 method; format: functional, cell-based
# Mitogen-activated protein kinase 1, sequence (P28482 whole entry): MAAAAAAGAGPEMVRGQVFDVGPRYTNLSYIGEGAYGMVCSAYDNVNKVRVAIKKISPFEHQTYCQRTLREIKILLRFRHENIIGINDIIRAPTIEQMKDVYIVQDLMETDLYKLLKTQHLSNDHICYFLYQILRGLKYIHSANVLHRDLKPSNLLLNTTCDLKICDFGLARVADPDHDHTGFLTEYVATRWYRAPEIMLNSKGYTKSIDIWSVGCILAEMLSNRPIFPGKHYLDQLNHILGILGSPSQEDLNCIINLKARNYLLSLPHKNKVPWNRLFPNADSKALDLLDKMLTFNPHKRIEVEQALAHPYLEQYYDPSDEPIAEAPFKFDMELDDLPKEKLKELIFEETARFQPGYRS
SMILES,IC50 [1] [nM],inhibition of growth at 5 µM (MCF7 [2]) [%],inhibition of growth at 5 µM (HepG2) [%],inhibition of growth at 5 µM (A549) [%],inhibition of growth at 5 µM 5637 [%],IC50 (MCF7 [3]) [nM],IC50 (4T1) [nM],IC50 (MDA-MB-468) [nM],IC50 (HCC1937) [nM],IC50 (MCF-10A) [nM]
CC[C@@H](C)[C@@H](Cn1cc[n+](Cc2ccccc2)c1)NC(=O)Nc1cc(C(F)(F)F)cc(C(F)(F)F)c1,483,86.9,47.2,8.36,85.6,–,–,–,–,–
O=C(Nc1cc(C(F)(F)F)cc(C(F)(F)F)c1)N[C@@H](Cc1ccccc1)Cn1cc(C(F)(F)F)[n+](Cc2ccccc2)c1,297,19.4,31.2,13.5,26.4,–,–,–,–,–
O=C(Nc1ccc(Cl)c(Cl)c1)N[C@@H](Cc1ccccc1)Cn1c[n+](Cc2ccc3ccccc3c2)c2ccccc21,215,–,–,–,–,1550,6770,2450,3370,9720
O=C(Nc1ccc(F)cc1)N[C@@H](Cc1ccccc1)Cn1c[n+](Cc2ccc3ccccc3c2)c2ccccc21,394,–,–,–,–,1980,8440,2800,3200,8750
Cc1ccc(NC(=O)N[C@@H](Cc2ccccc2)Cn2c[n+](Cc3ccc4ccccc4c3)c3ccccc32)cc1,399,–,–,–,–,2520,6620,3690,3620,> 10000
N#Cc1cccc(C[n+]2cn(C[C@H](Cc3ccccc3)NC(=O)Nc3cc(C(F)(F)F)cc(C(F)(F)F)c3)c3ccccc32)c1,335,–,–,–,–,3360,> 10000,5290,5960,> 10000
O=C(Nc1cc(C(F)(F)F)cc(C(F)(F)F)c1)N[C@@H](Cc1ccccc1)Cn1c[n+](Cc2cccc(C(F)(F)F)c2)c2ccccc21,185,–,–,–,–,1860,7030,2340,3480,> 10000
O=C(Nc1cc(C(F)(F)F)cc(C(F)(F)F)c1)N[C@@H](Cc1ccccc1)Cn1c[n+](Cc2ccc(F)cc2)c2ccccc21,294,–,–,–,–,2840,9670,3220,4200,> 10000
Cc1n(C[C@H](Cc2ccccc2)NC(=O)Nc2cc(C(F)(F)F)cc(C(F)(F)F)c2)cc[n+]1Cc1ccccc1,376,40.5,20.8,2.07,12.8,–,–,–,–,–
O=C(Nc1cc(C(F)(F)F)cc(C(F)(F)F)c1)N[C@@H](Cc1ccccc1)Cn1cc[n+](Cc2ccccc2)c1,272,82,38.1,9.26,61.9,–,–,–,–,–
N#Cc1ccccc1C[n+]1cn(C[C@H](Cc2ccccc2)NC(=O)Nc2cc(C(F)(F)F)cc(C(F)(F)F)c2)c2ccccc21,414,–,–,–,–,3840,7410,3640,5600,> 10000
Cc1n(C[C@@H](NC(=O)Nc2cc(C(F)(F)F)cc(C(F)(F)F)c2)C(C)C)cc[n+]1Cc1ccccc1,535,7.92,-4.95,7.87,21.1,–,–,–,–,–
O=C(Nc1cc(C(F)(F)F)cc(C(F)(F)F)c1)N[C@@H](Cc1ccccc1)Cn1c[n+](Cc2ccc(Cl)cc2Cl)c2ccccc21,198,–,–,–,–,1700,4630,2150,1540,> 10000
O=C(Nc1cc(C(F)(F)F)cc(C(F)(F)F)c1)N[C@@H](Cc1ccccc1)Cn1c[n+](Cc2c(Cl)cccc2Cl)c2ccccc21,195,–,–,–,–,3150,5530,3450,2150,> 10000
O=C(Nc1ccc(Cl)c(C(F)(F)F)c1)N[C@@H](Cc1ccccc1)Cn1c[n+](Cc2ccc3ccccc3c2)c2ccccc21,244,–,–,–,–,1590,> 10000,1290,2550,> 10000
O=C(Nc1cc(C(F)(F)F)cc(C(F)(F)F)c1)N[C@@H](Cc1ccccc1)Cn1c[n+](Cc2cccc(F)c2)c2ccccc21,133,–,–,–,–,2430,5330,1710,3170,9320
COc1cccc(C[n+]2cn(C[C@H](Cc3ccccc3)NC(=O)Nc3cc(C(F)(F)F)cc(C(F)(F)F)c3)c3ccccc32)c1,247,–,–,–,–,1320,3540,1570,3680,> 10000
Cc1ccccc1C[n+]1cn(C[C@H](Cc2ccccc2)NC(=O)Nc2cc(C(F)(F)F)cc(C(F)(F)F)c2)c2ccccc21,123,–,–,–,–,2770,4830,1910,2750,> 10000
O=C(Nc1ccc(C(F)(F)F)cc1)N[C@@H](Cc1ccccc1)Cn1c[n+](Cc2ccc3ccccc3c2)c2ccccc21,217,–,–,–,–,1070,3720,2080,2980,> 10000
CC(C)[C@@H](Cn1cc[n+](Cc2ccccc2)c1)NC(=O)Nc1cc(C(F)(F)F)cc(C(F)(F)F)c1,606,55.7,24.5,7.18,31.5,–,–,–,–,–
CC[C@@H](C)[C@@H](Cn1cc[n+](Cc2ccccc2)c1C)NC(=O)Nc1cc(C(F)(F)F)cc(C(F)(F)F)c1,406,64,71.3,8.26,17.6,–,–,–,–,–
O=C(Nc1ccc(Cl)cc1)N[C@@H](Cc1ccccc1)Cn1c[n+](Cc2ccc3ccccc3c2)c2ccccc21,248,–,–,–,–,2420,7200,3020,1710,> 10000
N#Cc1ccc(C[n+]2cn(C[C@H](Cc3ccccc3)NC(=O)Nc3cc(C(F)(F)F)cc(C(F)(F)F)c3)c3ccccc32)cc1,392,–,–,–,–,5030,> 10000,2660,3820,> 10000
Cc1ccc(C[n+]2cn(C[C@H](Cc3ccccc3)NC(=O)Nc3cc(C(F)(F)F)cc(C(F)(F)F)c3)c3ccccc32)cc1,315,–,–,–,–,2990,5800,2240,1490,> 10000
O=C(Nc1cc(C(F)(F)F)cc(C(F)(F)F)c1)N[C@@H](Cc1ccccc1)Cn1c[n+](Cc2ccc3cccnc3c2)c2ccccc21,370,–,–,–,–,1790,5290,1810,1130,8220
O=C(Nc1cc(C(F)(F)F)cc(C(F)(F)F)c1)N[C@@H](Cc1ccccc1)Cn1c[n+](Cc2ccccc2Br)c2ccccc21,236,–,–,–,–,1940,3510,1620,3000,9250
O=C(Nc1cc(C(F)(F)F)cc(C(F)(F)F)c1)N[C@@H](Cc1ccccc1)Cn1c[n+](Cc2ccccc2Cl)c2ccccc21,235,–,–,–,–,1990,3880,2060,1870,9180
